Tested on: N2O emissions from soils
Test: Greenhouse experiment: detection of nitrous oxide (N2O) losses from pots
Conditions: urea
Excerpt: Detection of Nitrous Oxide Losses:
On application day (DATO), each pot (with/without plants or algae) was set onto a plant saucer designed with an inner compartment for the pot and an outer ring that is filled with water. At time 0, water holding capacity of the soil was set to 60-70% prior to application with/without fertilizer and a.i. Subsequently, a gas sampling chamber was placed over the plant saucer such that the rim fit into the ring filled with water to create a gas-tight chamber and 25 cc air from the chamber were drawn into a syringe and immediately emptied in to a Vacutainer (Labco, 12 ml volume). This equals the Time 0 measurement for each pot. The same procedure was performed with all pots in the experiment. After two hour incubation time, again 25 cc air samples were taken from the gas chambers and emptied into Vacutainers as described above. Plants were then returned to their positions in the climate chamber. The procedure was repeated at precisely the same time of day for up to 19 days.
Samples were analyzed in a Shimadzu 2014 GC equipped with an ECD system.

[1] = DAT 1, NI 0.20, UI 0.01 where present
[2] = DAT 1, NI 0.35, UI 0.01 where present
[3] = DAT 1, NI 0.50, UI 0.01 where present
[4] = DAT 2, NI 0.20, UI 0.01 where present
[5] = DAT 2, NI 0.35, UI 0.01 where present
[6] = DAT 2, NI 0.50, UI 0.01 where present
[7] = DAT 3, NI 0.20, UI 0.01 where present
[8] = DAT 3, NI 0.35, UI 0.01 where present
[9] = DAT 3, NI 0.50, UI 0.01 where present
[10] = DAT 4, NI 0.20, UI 0.01 where present
[11] = DAT 4, NI 0.35, UI 0.01 where present
[12] = DAT 4, NI 0.50, UI 0.01 where present
[13] = DAT 5, NI 0.20, UI 0.01 where present
[14] = DAT 5, NI 0.35, UI 0.01 where present
[15] = DAT 5, NI 0.50, UI 0.01 where present
[16] = DAT 6, NI 0.20, UI 0.01 where present
[17] = DAT 6, NI 0.35, UI 0.01 where present
[18] = DAT 6, NI 0.50, UI 0.01 where present
[19] = DAT 7, NI 0.20, UI 0.01 where present
[20] = DAT 7, NI 0.35, UI 0.01 where present
[21] = DAT 7, NI 0.50, UI 0.01 where present
[22] = DAT 8, NI 0.20, UI 0.01 where present
[23] = DAT 8, NI 0.35, UI 0.01 where present
[24] = DAT 8, NI 0.50, UI 0.01 where present
[25] = DAT 10, NI 0.20, UI 0.01 where present
[26] = DAT 10, NI 0.35, UI 0.01 where present
[27] = DAT 10, NI 0.50, UI 0.01 where present
[28] = DAT 12, NI 0.20, UI 0.01 where present
[29] = DAT 12, NI 0.35, UI 0.01 where present
[30] = DAT 12, NI 0.50, UI 0.01 where present
[31] = DAT 16, NI 0.20, UI 0.01 where present
[32] = DAT 16, NI 0.35, UI 0.01 where present
[33] = DAT 16, NI 0.50, UI 0.01 where present
[34] = DAT 19, NI 0.20, UI 0.01 where present
[35] = DAT 19, NI 0.35, UI 0.01 where present
[36] = DAT 19, NI 0.50, UI 0.01 where present

With Cc1cn(C(CC(=O)[O-])C(=O)[O-])nc1C.[K+].[K+] (stereo not shown) [DMPSA-K2] the “Nitrous oxide (N2O) emissions, cumulated values” (“Nitrous oxide … cumulated values” for short) [1] was 8.97 μg N2O—N/m2*h, the “Nitrous oxide … cumulated values” [2] was 7.74 μg N2O—N/m2*h and the “Nitrous oxide … cumulated values” [3] was 7.62 μg N2O—N/m2*h. For the same compound, the “Nitrous oxide … cumulated values” [4] was 19.30 μg N2O—N/m2*h, the “Nitrous oxide … cumulated values” [5] was 18.94 μg N2O—N/m2*h and the “Nitrous oxide … cumulated values” [6] was 20.18 μg N2O—N/m2*h. For the same compound, the “Nitrous oxide … cumulated values” [7] was 29.75 μg N2O—N/m2*h, the “Nitrous oxide … cumulated values” [8] was 29.26 μg N2O—N/m2*h and the “Nitrous oxide … cumulated values” [9] was 30.31 μg N2O—N/m2*h. For the same compound, the “Nitrous oxide … cumulated values” [10] was 37.16 μg N2O—N/m2*h, the “Nitrous oxide … cumulated values” [11] was 37.09 μg N2O—N/m2*h and the “Nitrous oxide … cumulated values” [12] was 37.69 μg N2O—N/m2*h. For the same compound, the “Nitrous oxide … cumulated values” [13] was 45.99 μg N2O—N/m2*h, the “Nitrous oxide … cumulated values” [14] was 46.55 μg N2O—N/m2*h and the “Nitrous oxide … cumulated values” [15] was 46.97 μg N2O—N/m2*h. For the same compound, the “Nitrous oxide … cumulated values” [16] was 52.71 μg N2O—N/m2*h, the “Nitrous oxide … cumulated values” [17] was 52.67 μg N2O—N/m2*h and the “Nitrous oxide … cumulated values” [18] was 52.44 μg N2O—N/m2*h. The “Nitrous oxide … cumulated values” [19] was 60.65 μg N2O—N/m2*h, the “Nitrous oxide … cumulated values” [20] was 60.12 μg N2O—N/m2*h and the “Nitrous oxide … cumulated values” [21] was 62.57 μg N2O—N/m2*h. The “Nitrous oxide … cumulated values” [22] was 68.52 μg N2O—N/m2*h, the “Nitrous oxide … cumulated values” [23] was 70.52 μg N2O—N/m2*h and the “Nitrous oxide … cumulated values” [24] was 72.03 μg N2O—N/m2*h. For the same compound, the “Nitrous oxide … cumulated values” [25] was 77.59 μg N2O—N/m2*h, the “Nitrous oxide … cumulated values” [26] was 77.77 μg N2O—N/m2*h and the “Nitrous oxide … cumulated values” [27] was 79.00 μg N2O—N/m2*h. The “Nitrous oxide … cumulated values” [28] was 85.15 μg N2O—N/m2*h, the “Nitrous oxide … cumulated values” [29] was 81.35 μg N2O—N/m2*h and the “Nitrous oxide … cumulated values” [30] was 82.43 μg N2O—N/m2*h. The “Nitrous oxide … cumulated values” [31] was 87.97 μg N2O—N/m2*h, the “Nitrous oxide … cumulated values” [32] was 84.12 μg N2O—N/m2*h and the “Nitrous oxide … cumulated values” [33] was 84.05 μg N2O—N/m2*h. For the same compound, the “Nitrous oxide … cumulated values” [34] was 88.83 μg N2O—N/m2*h, the “Nitrous oxide … cumulated values” [35] was 84.94 μg N2O—N/m2*h and the “Nitrous oxide … cumulated values” [36] was 84.28 μg N2O—N/m2*h. The “Nitrous oxide (N2O) emissions, % appl. N” value (NI 0.20, UI 0.01 where present) was 0.381 % appl. N, the “Nitrous oxide (N2O) emissions, % appl. N” value (NI 0.35, UI 0.01 where present) was 0.364 % appl. N and the “Nitrous oxide (N2O) emissions, % appl. N” value (NI 0.50, UI 0.01 where present) was 0.361 % appl. N.
With Cc1cn(C(CC(=O)O)C(=O)O)nc1C.N.N (stereo not shown) [DMPSA-di-NH4] the “Nitrous oxide … cumulated values” [1] was 5.71 μg N2O—N/m2*h, the “Nitrous oxide … cumulated values” [2] was 6.74 μg N2O—N/m2*h and the “Nitrous oxide … cumulated values” [3] was 7.89 μg N2O—N/m2*h. The “Nitrous oxide … cumulated values” [4] was 17.84 μg N2O—N/m2*h, the “Nitrous oxide … cumulated values” [5] was 22.08 μg N2O—N/m2*h and the “Nitrous oxide … cumulated values” [6] was 16.36 μg N2O—N/m2*h. The “Nitrous oxide … cumulated values” [7] was 28.36 μg N2O—N/m2*h, the “Nitrous oxide … cumulated values” [8] was 30.26 μg N2O—N/m2*h and the “Nitrous oxide … cumulated values” [9] was 23.64 μg N2O—N/m2*h. For the same compound, the “Nitrous oxide … cumulated values” [10] was 40.61 μg N2O—N/m2*h, the “Nitrous oxide … cumulated values” [11] was 39.25 μg N2O—N/m2*h and the “Nitrous oxide … cumulated values” [12] was 31.59 μg N2O—N/m2*h. The “Nitrous oxide … cumulated values” [13] was 51.02 μg N2O—N/m2*h, the “Nitrous oxide … cumulated values” [14] was 47.97 μg N2O—N/m2*h and the “Nitrous oxide … cumulated values” [15] was 38.95 μg N2O—N/m2*h. For the same compound, the “Nitrous oxide … cumulated values” [16] was 57.34 μg N2O—N/m2*h, the “Nitrous oxide … cumulated values” [17] was 54.68 μg N2O—N/m2*h and the “Nitrous oxide … cumulated values” [18] was 45.83 μg N2O—N/m2*h. The “Nitrous oxide … cumulated values” [19] was 66.12 μg N2O—N/m2*h, the “Nitrous oxide … cumulated values” [20] was 60.89 μg N2O—N/m2*h and the “Nitrous oxide … cumulated values” [21] was 53.03 μg N2O—N/m2*h. For the same compound, the “Nitrous oxide … cumulated values” [22] was 76.79 μg N2O—N/m2*h, the “Nitrous oxide … cumulated values” [23] was 66.75 μg N2O—N/m2*h and the “Nitrous oxide … cumulated values” [24] was 62.02 μg N2O—N/m2*h. For the same compound, the “Nitrous oxide … cumulated values” [25] was 86.54 μg N2O—N/m2*h, the “Nitrous oxide … cumulated values” [26] was 72.23 μg N2O—N/m2*h and the “Nitrous oxide … cumulated values” [27] was 67.48 μg N2O—N/m2*h. The “Nitrous oxide … cumulated values” [28] was 92.81 μg N2O—N/m2*h, the “Nitrous oxide … cumulated values” [29] was 76.32 μg N2O—N/m2*h and the “Nitrous oxide … cumulated values” [30] was 72.35 μg N2O—N/m2*h. For the same compound, the “Nitrous oxide … cumulated values” [31] was 93.10 μg N2O—N/m2*h, the “Nitrous oxide … cumulated values” [32] was 78.21 μg N2O—N/m2*h and the “Nitrous oxide … cumulated values” [33] was 74.66 μg N2O—N/m2*h. For the same compound, the “Nitrous oxide … cumulated values” [34] was 93.49 μg N2O—N/m2*h, the “Nitrous oxide … cumulated values” [35] was 78.47 μg N2O—N/m2*h and the “Nitrous oxide … cumulated values” [36] was 75.03 μg N2O—N/m2*h. The “Nitrous oxide (N2O) emissions, % appl. N” value (NI 0.20, UI 0.01 where present) was 0.401 % appl. N, the “Nitrous oxide (N2O) emissions, % appl. N” value (NI 0.35, UI 0.01 where present) was 0.337 % appl. N and the “Nitrous oxide (N2O) emissions, % appl. N” value (NI 0.50, UI 0.01 where present) was 0.322 % appl. N.
For CCCCNP(N)(N)=S [NBPT, N-(n-butyl)thiophosphoric acid triamide, reference compound], the “Nitrous oxide … cumulated values” (DAT 1, no NI, UI 0.01) was 9.77 μg N2O—N/m2*h, the “Nitrous oxide … cumulated values” (DAT 2, no NI, UI 0.01) was 27.42 μg N2O—N/m2*h and the “Nitrous oxide … cumulated values” (DAT 3, no NI, UI 0.01) was 40.07 μg N2O—N/m2*h. The “Nitrous oxide … cumulated values” (DAT 4, no NI, UI 0.01) was 53.70 μg N2O—N/m2*h, the “Nitrous oxide … cumulated values” (DAT 5, no NI, UI 0.01) was 68.86 μg N2O—N/m2*h and the “Nitrous oxide … cumulated values” (DAT 6, no NI, UI 0.01) was 89.16 μg N2O—N/m2*h. For the same compound, the “Nitrous oxide … cumulated values” (DAT 7, no NI, UI 0.01) was 109.04 μg N2O—N/m2*h, the “Nitrous oxide … cumulated values” (DAT 8, no NI, UI 0.01) was 127.94 μg N2O—N/m2*h and the “Nitrous oxide … cumulated values” (DAT 10, no NI, UI 0.01) was 133.95 μg N2O—N/m2*h. The “Nitrous oxide … cumulated values” (DAT 12, no NI, UI 0.01) was 140.07 μg N2O—N/m2*h, the “Nitrous oxide … cumulated values” (DAT 16, no NI, UI 0.01) was 143.31 μg N2O—N/m2*h and the “Nitrous oxide … cumulated values” (DAT 19, no NI, UI 0.01) was 146.30 μg N2O—N/m2*h. The “Nitrous oxide (N2O) emissions, % appl. N” value (no NI, UI 0.01) was 0.628 % appl. N.

Source: patent publication US11659837B2, “Mixtures comprising an urease inhibitor (UI) and a nitrification inhibitor such as 2-(3,4-dimethyl-1H-pyrazol-1-yl)succinic acid (DMPSA) or 3,4-dimethyl pyrazolium glycolate (DMPG)” (BASF SE, priority 2017, dated 2023)
